The values below come from patent US8546391B2, “Thiadiazole and oxadiazole derivatives, preparation thereof and therapeutic use thereof” (Sanofi, priority 2009, dated 2013).

Molecules are shown by their SMILES.

The test system of series [1] is triglyceride biosynthesis. As to the kind of experiment: in vitro inhibitory activity on triglyceride biosynthesis, cell test ([14C] glycerol incorporation in Chang liver cells). It is filed as cell-based. As to conditions: compounds incubated 30 minutes, then [14C] glycerol incorporation for 6 hours, read-out: inhibitory activity on triglyceride biosynthesis, concentration that inhibits 50% of the activity. The protocol:
These trials consisted in measuring the in vitro inhibitory activity of the compounds of the invention on a cell test.
Chang liver cells at 80% confluence are detached with trypsin-EDTA, 4 ml per 175 cm^2 flask. After centrifugation at 1300×g for 5 minutes, the cell pellet is washed once with PBS and then resuspended in whole medium. The number of cells and their viability are determined on Mallassez cells via the exclusion method with trypan blue.
150 000 cells are inoculated per well into a 24-well plate for a minimum of 3 hours in DMEM medium 4.5 g/l of glucose supplemented with 10% FCS and with antibiotics, and are maintained at 37° C. in an incubator with CO2 (5%).
After 3 hours, the cells have adhered, the medium is removed and replaced overnight with DMEM medium 4.5 g/l of glucose with 2% of BSA/oleate.
After culturing for 18 hours without serum, the test compounds are incubated for 30 minutes ([…], 30, 100, 300 and 1000 nM) with the cells, followed by addition of [^14C] glycerol (0.4 μCi/ml/well) for an incorporation time of 6 hours.
The supernatant is drawn off and the cells are recovered by treatment with trypsin-EDTA, 100 μl/well, for 5 minutes at 37° C. This cell suspension is then recovered in an Eppendorf tube and is washed with twice 500 μl of PBS. The centrifugation at 1300×g for 5 minutes allows recovery of the cell pellets, which may be frozen at −20° C. In order to extract the lipids from the cell pellet, 400 μl of a methanol/dichloromethane/trifluoroacetic acid mixture (50/50/0.1%) is used to resuspend the cells. Next, the cell membranes are destroyed by sonication on a water bath, for 30 minutes. The samples are filtered through a 0.45 μm filtered and then injected onto a C18 HPLC column of 4.6×75 mm, 3 μm with a mobile phase of 5% (H2O+0.1% TFA), 70% methanol, 25% dichloromethane, with a flow rate of 1.5 ml/minute. The radioactivity is measured using a Flo One C625TR machine (Perkin-Elmer).
The inhibitory activity on triglyceride biosynthesis is given by the concentration that inhibits 50% of the activity.

For the compound `O=C(O)C[C@H]1CC[C@H](c2ccc(C(=O)Nc3nnc(COC4CCCC4)s3)cc2)CC1` [Compound 37, trans-{4-[4-(5-cyclopentyloxymethyl[1.3.4]thiadiazol-2-ylcarbamoyl)-phenyl]cyclohexyl}acetic acid], the IC50 in series [1] was found to be 18 nM.

For orientation: melting point means the temperature, or range, at which the solid turns liquid. `O=C(O)C[C@H]1CC[C@H](c2ccc(C(=O)Nc3nnc(COCC4CCCC4)s3)cc2)CC1` [Compound 40, trans-{4-[4-(5-cyclopentylmethoxymethyl[1,3,4]thiadiazol-2-ylcarbamoyl)phenyl]cyclohexyl}acetic acid]: the melting point was found to be 241 °C. In addition, the IC50 in series [1] came out at 51 nM.

In the case of `O=C(Nc1nnc(Cc2cccc(Cl)c2)s1)c1ccc(O[C@H]2CC[C@@H](C(=O)O)CC2)nc1` [Compound 63, cis-4-{5-[5-(3-chlorobenzyl)[1.3.4]thiadiazol-2-ylcarbamoyl]pyridin-2-yloxy}cyclohexanecarboxylic acid], the IC50 in series [1] is 85 nM.

As for `O=C(Nc1nnc(Cc2ccccc2)s1)c1ccc(N[C@H]2CC[C@@H](C(=O)O)CC2)cc1` [Compound 68, cis-4-[4-(5-benzyl[1.3.4]thiadiazol-2-ylcarbamoyl)phenylamino]cyclohexanecarboxylic acid], the IC50 in series [1] turned out to be 271 nM.
